# Biological target: T1, AR (Homo sapiens, UniProt P10275)
# T1 construct: expression construct for the full-length human receptor under investigation; expressed in transfected cells; host or cells: human U2-OS cells (ATCC HTB-96), stably transfected
# T1 sequence (P10275 1-920): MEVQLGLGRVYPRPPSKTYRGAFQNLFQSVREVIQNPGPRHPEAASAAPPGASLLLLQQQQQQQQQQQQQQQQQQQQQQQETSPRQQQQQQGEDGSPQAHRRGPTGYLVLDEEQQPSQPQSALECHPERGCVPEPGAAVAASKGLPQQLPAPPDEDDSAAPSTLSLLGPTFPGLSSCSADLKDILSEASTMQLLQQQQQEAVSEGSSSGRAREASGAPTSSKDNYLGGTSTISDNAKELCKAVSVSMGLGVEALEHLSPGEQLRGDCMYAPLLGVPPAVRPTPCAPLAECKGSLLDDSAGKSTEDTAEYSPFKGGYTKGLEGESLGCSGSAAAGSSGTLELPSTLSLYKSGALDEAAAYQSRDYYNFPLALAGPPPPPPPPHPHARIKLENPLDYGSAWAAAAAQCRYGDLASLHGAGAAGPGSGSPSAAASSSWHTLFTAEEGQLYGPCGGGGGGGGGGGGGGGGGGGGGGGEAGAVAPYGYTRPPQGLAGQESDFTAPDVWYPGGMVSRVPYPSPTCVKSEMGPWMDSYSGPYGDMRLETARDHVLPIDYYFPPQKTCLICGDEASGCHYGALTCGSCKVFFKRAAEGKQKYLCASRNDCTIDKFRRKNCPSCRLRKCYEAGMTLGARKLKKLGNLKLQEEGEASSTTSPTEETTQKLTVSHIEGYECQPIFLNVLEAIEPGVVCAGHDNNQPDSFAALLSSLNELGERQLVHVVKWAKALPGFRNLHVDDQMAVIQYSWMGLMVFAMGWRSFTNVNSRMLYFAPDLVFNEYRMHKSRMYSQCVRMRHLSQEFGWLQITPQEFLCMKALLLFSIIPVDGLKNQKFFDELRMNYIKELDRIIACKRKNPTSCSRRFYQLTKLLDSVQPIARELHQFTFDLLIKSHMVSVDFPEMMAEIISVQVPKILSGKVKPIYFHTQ
# Assay: AR-anti CALUX reporter gene assay (antagonistic mode)
# Type: cell-based
# Design: key: –: no effect observed up to the highest test concentration
# Conditions: PC20, 24 h exposure
# From the text: Polyarylethersulfone of 55,000 Da were obtained from INGE.BASF, Germany. The CALUX cell lines have been described previously.[1] They are based on human U2-OS cells (ATCC, HTB-96) stably transfected with an expression construct for the full-length human receptor under investigation, and a reporter construct consisting of multimerized responsive elements for the cognate receptor coupled to a minimal promoter element (TATA) and a luciferase gene. Cells were maintained as described previously,[2] using cell culture media and supplements from Fisher Scientific as described in the experimental procedures section. […]
# In vitro reporter gene assays
# The automated CALUX assays were carried out similarly as described earlier,[12] with some adaptations. In brief, the assay was performed in CO2 independent medium (Fisher Scientific, […]
# with 30 µl cell suspension/well. After 24 h, exposure medium was prepared. A dilution series in 0.5log unit increments of each test compound (in DMSO) was added to a 96-wells plate containing assay medium (2% v/v). Of this exposure mixture, 30 µl was added to the assay plates containing the CALUX cells, resulting in a final DMSO concentration of 1%. Additionally, DMSO blanks and a full dose response curve of the relevant reference compound were included on each plate. All samples were tested in triplicate. The preparation of the compound dilution series as well as the exposure of the cells were performed on a Hamilton StarLET liquid handling robot coupled to a Cytomat incubator.
# Directly after exposure, plates were sealed with non-breathing plate seals (Plate sealer, easy seal […]
# After 24 h the exposure medium was removed using an EL406 washer-dispenser (BioTek) and 10 µl/well triton lysisbuffer was added by the EL406.
# Subsequently, the luciferase signal was measured in a luminometer (InfinitePro coupled to a Connect Stacker, both TECAN). In order to be able to detect receptor antagonism, several assays were also performed in antagonistic mode. The assay procedure was as described above, with the only exception that the EC50 concentration of the reference agonist was present during the exposure.
# The luminometer data was analysed as follows; the average of the triplicate wells was determined, […]
row,LEC AR‐anti,SMILES
1,–,"CCCCN(CC)C(=O)CCC(=O)N(CC)CCCC [EBSA, N,N′‐diethyl‐N,N′‐dibutylsuccindiamide]"
2,–,"CCCCN(C)C(=O)CCC(=O)N(C)CCCC [MBSA, N,N′‐dimethyl‐N,N′‐dibutylsuccindiamide]"
3,–,"CCCCN1CCCC1=O [NBP, N‐Butylpyrrolidinone, reference compound]"
4,–,"CCCCN(CCCC)C(=O)CCC(=O)N(CCCC)CCCC [TBSA, N,N,N′,N′‐tetrabutylsuccindiamide]"
